According to paper PMC11579512, “Deoxybouvardin-glucoside induces apoptosis in non-small cell lung cancer cells by targeting EGFR/MET and AKT signaling pathway” (EXCLI Journal, 2024):

Assays:
Assay type in all cases: cell-based, human
[1] = tested on: HCC827 cells; assay: Cell cycle distribution (Muse, PI), HCC827; details: 48 h
Description: (§1) HaCaT cells were grown in DMEM, whereas HCC827 and HCC827GR cells were grown in RPMI 1640. All culture media were supplemented with FBS (10 %) and P/S (1 %), and the cells were grown at 37 °C in 5 % CO2.
Cell cycle distribution analysis was performed using a Muse™ Cell Cycle Kit (MCH100106, Merck Millipore, Billerica, MA) based on propidium iodide (PI) staining. The cells were collected, fixed in 70 % ethanol overnight at -20 °C, and then stained with a Muse™ Cell Cycle Reagent at RT for 30 min in the dark. The cell cycle distribution was measured using a Muse™ Cell Analyzer (Merck Millipore).

[2] = tested on: CDK6; assay: Immunoblot CDK6 in HCC827 and HCC827GR cells; details: for CDK6 protein ratio: relative to DBG 0 nM = 1.00
Description: as §1
(§2) Cells were lysed in RIPA buffer, and protein concentration was determined using a Bio-Rad DC Protein Assay kit (Bio-Rad, Hercules, CA, USA). Protein samples from the cell lysates were resolved by sodium dodecyl sulfate-polyacrylamide gel electrophoresis and then transferred onto polyvinylidene fluoride membranes. The membranes were blocked with 3 % or 5 % skim milk and then incubated at 4 °C overnight with the indicated primary antibodies, followed by the corresponding horseradish peroxidase-conjugated secondary antibodies at RT for 2 h. Protein bands were visualized using western blotting luminol reagent solution and ImageQuant LAS 500 (GE Healthcare, Uppsala, Sweden). The density of the bands was quantified using ImageJ software (NIH, Bethesda, MD, USA).

[3] = tested on: HCC827GR cells; assay: Intracellular ROS (Muse Oxidative Stress Kit), HCC827GR; details: 48 h, control 16.69 %
Description: as §1
The levels of intracellular ROS were measured using a Muse™ Oxidative Stress Kit (MCH100111, Merck Millipore) in accordance with the manufacturer's instructions. The cells were incubated with a Muse™ Oxidative Stress Reagent working solution in the dark at 37 °C for 30 min. Intracellular ROS generation was measured using a Muse™ Cell Analyzer.

[4] = tested on: p-AKT; assay: Immunoblot p-AKT with NAC pretreatment, HCC827 and HCC827GR cells; details: for p-AKT protein Ratio: control = 1.00
Description: as §1, §2

[5] = tested on: cytochrome c (cytosol); assay: Immunoblot cytosolic cytochrome c in HCC827 and HCC827GR cells
Description: as §2
(§3) The cells were suspended in plasma membrane extraction buffer [250 mM sucrose, 10 mM HEPES (pH 8.0), 10 mM KCl, 1.5 mM MgCl2• 6H2O, 1 mM EGTA, 1 mM EDTA, 0.1 mM PMSF, 0.01 mg/ml aprotinin, and 0.01 mg/ml leupeptin], and 0.1 % digitonin was added for vortexing (1 min). The supernatant was collected as the cytosolic fraction. The pellet was resuspended in plasma membrane extraction buffer containing 0.5 % Triton X-100. The lysates were centrifuged at 13,000 rpm for 30 min to separate the mitochondrial fraction.

[6] = tested on: cytochrome c (mitochondrial); assay: Immunoblot mitochondrial cytochrome c in HCC827 and HCC827GR cells; details: for cyto c (mitosol) protein Ratio: DBG 0 nM = 1.00
Description: as §2, §3

COc1ccc(C[C@H]2C(=O)N[C@@H](C)C(=O)N(C)[C@H]3Cc4ccc(cc4)Oc4cc(ccc4O[C@@H]4O[C@H](CO)[C@@H](O)[C@H](O)[C@H]4O)C[C@@H](C(=O)N[C@H](C)C(=O)N[C@@H](C)C(=O)N2C)N(C)C3=O)cc1 [DBG, deoxybouvardin glucoside]
G0/G1 distribution ([1]; DBG 3 nM, mean of 3 samples): 61.33 | G2/M distribution ([1]; DBG 3 nM, mean of 3 samples): 31.20 | S distribution ([1]; DBG 3 nM, mean of 3 samples): 7.47 | G0/G1 distribution ([1]; DBG 3 nM, sample 1): 60.80 | G2/M distribution ([1]; DBG 3 nM, sample 1): 31.60 | S distribution ([1]; DBG 3 nM, sample 1): 7.60 | G0/G1 distribution ([1]; DBG 3 nM, sample 2): 61.70 | G2/M distribution ([1]; DBG 3 nM, sample 2): 31.40 | S distribution ([1]; DBG 3 nM, sample 2): 6.90 | G0/G1 distribution ([1]; DBG 3 nM, sample 3): 61.50 | G2/M distribution ([1]; DBG 3 nM, sample 3): 30.60 | S distribution ([1]; DBG 3 nM, sample 3): 7.90 | G0/G1 distribution ([1]; DBG 6 nM, mean of 3 samples): 64.27 | G2/M distribution ([1]; DBG 6 nM, mean of 3 samples): 28.30 | S distribution ([1]; DBG 6 nM, mean of 3 samples): 7.43 | G0/G1 distribution ([1]; DBG 6 nM, sample 1): 65.20 | G2/M distribution ([1]; DBG 6 nM, sample 1): 27.50 | S distribution ([1]; DBG 6 nM, sample 1): 7.30 | G0/G1 distribution ([1]; DBG 6 nM, sample 2): 63.60 | G2/M distribution ([1]; DBG 6 nM, sample 2): 28.30 | S distribution ([1]; DBG 6 nM, sample 2): 8.10 | G0/G1 distribution ([1]; DBG 6 nM, sample 3): 64.00 | G2/M distribution ([1]; DBG 6 nM, sample 3): 29.10 | S distribution ([1]; DBG 6 nM, sample 3): 6.90 | G0/G1 distribution ([1]; DBG 12 nM, mean of 3 samples): 74.37 | G2/M distribution ([1]; DBG 12 nM, mean of 3 samples): 19.80 | S distribution ([1]; DBG 12 nM, mean of 3 samples): 5.83 | G0/G1 distribution ([1]; DBG 12 nM, sample 1): 73.00 | G2/M distribution ([1]; DBG 12 nM, sample 1): 21.00 | S distribution ([1]; DBG 12 nM, sample 1): 6.00 | G0/G1 distribution ([1]; DBG 12 nM, sample 2): 75.10 | G2/M distribution ([1]; DBG 12 nM, sample 2): 19.40 | S distribution ([1]; DBG 12 nM, sample 2): 5.50 | G0/G1 distribution ([1]; DBG 12 nM, sample 3): 75.00 | G2/M distribution ([1]; DBG 12 nM, sample 3): 19.00 | S distribution ([1]; DBG 12 nM, sample 3): 6.00 | level of CDKs (CDK6) ([2]; DBG 3, 6, 12 nM, 48 h): significantly decreased | CDK6 protein/actin ([2]; HCC827, DBG 3 nM, DBG 0 nM 0.53): 0.32 | CDK6 protein ratio ([2]; HCC827, DBG 3 nM): 0.60 | CDK6 protein/actin ([2]; HCC827, DBG 6 nM, DBG 0 nM 0.53): 0.19 | CDK6 protein ratio ([2]; HCC827, DBG 6 nM): 0.36 | CDK6 protein/actin ([2]; HCC827, DBG 12 nM, DBG 0 nM 0.53): 0.07 | CDK6 protein ratio ([2]; HCC827, DBG 12 nM): 0.14 | CDK6 protein/actin ([2]; HCC827GR, DBG 3 nM, DBG 0 nM 0.70): 0.55 | CDK6 protein ratio ([2]; HCC827GR, DBG 3 nM): 0.79 | CDK6 protein/actin ([2]; HCC827GR, DBG 6 nM, DBG 0 nM 0.70): 0.47 | CDK6 protein ratio ([2]; HCC827GR, DBG 6 nM): 0.67 | CDK6 protein/actin ([2]; HCC827GR, DBG 12 nM, DBG 0 nM 0.70): 0.30 | CDK6 protein ratio ([2]; HCC827GR, DBG 12 nM): 0.43 | ROS level ([3]; DBG 3 nM): 36.89% | ROS level ([3]; DBG 6 nM): 39.97% | ROS level ([3]; DBG 12 nM): 47.92% | p-AKT protein/actin ([4]; HCC827, DBG 12 nM, control 1.00): 0.39 | p-AKT protein Ratio ([4]; HCC827, DBG 12 nM): 0.39 | p-AKT protein/actin ([4]; HCC827, NAC 4 mM + DBG 12 nM, control 1.00): 0.42 | p-AKT protein Ratio ([4]; HCC827, NAC 4 mM + DBG 12 nM): 0.42 | p-AKT protein/actin ([4]; HCC827GR, DBG 12 nM, control 1.04): 0.30 | p-AKT protein Ratio ([4]; HCC827GR, DBG 12 nM): 0.29 | p-AKT protein/actin ([4]; HCC827GR, NAC 4 mM + DBG 12 nM, control 1.04): 0.17 | p-AKT protein Ratio ([4]; HCC827GR, NAC 4 mM + DBG 12 nM): 0.16 | DBG-decreased phosphorylation of AKT with NAC ([4]; NAC 4 mM pretreatment, DBG 48 h): did not change | cyto c (cytosol) cyto c/β-tubulin/actin (A) ([5]; HCC827, DBG 3 nM, DBG 0 nM 12.22): 16.55 | cyto c (cytosol) protein Ratio ([5]; HCC827, DBG 3 nM, relative to DBG 12 nM = 1.00, DBG 0 nM 0.18): 0.25 | cyto c (cytosol) cyto c/β-tubulin/actin (A) ([5]; HCC827, DBG 6 nM, DBG 0 nM 12.22): 47.59 | cyto c (cytosol) protein Ratio ([5]; HCC827, DBG 6 nM, relative to DBG 12 nM = 1.00, DBG 0 nM 0.18): 0.72 | cyto c (cytosol) protein Ratio ([5]; HCC827, DBG 12 nM (reference of the ratio, 1.00), DBG 0 nM 0.18): 1.00 | cyto c (cytosol) cyto c/β-tubulin/actin (A) ([5]; HCC827, DBG 12 nM, DBG 0 nM 12.22): 66.24 | cyto c (cytosol) cyto c/β-tubulin/actin (A) ([5]; HCC827GR, DBG 3 nM, DBG 0 nM 5.99): 33.57 | cyto c (cytosol) protein Ratio ([5]; HCC827GR, DBG 3 nM, relative to DBG 12 nM = 1.00, DBG 0 nM 0.07): 0.41 | cyto c (cytosol) cyto c/β-tubulin/actin (A) ([5]; HCC827GR, DBG 6 nM, DBG 0 nM 5.99): 49.49 | cyto c (cytosol) protein Ratio ([5]; HCC827GR, DBG 6 nM, relative to DBG 12 nM = 1.00, DBG 0 nM 0.07): 0.60 | cyto c (cytosol) protein Ratio ([5]; HCC827GR, DBG 12 nM (reference of the ratio, 1.00), DBG 0 nM 0.07): 1.00 | cyto c (cytosol) cyto c/β-tubulin/actin (A) ([5]; HCC827GR, DBG 12 nM, DBG 0 nM 5.99): 82.76 | cytochrome c release ([5]; NSCLC cells, DBG, cytosolic and mitochondrial fractions): released from the mitochondria | cyto c (mitosol) cyto c/COX4/actin (A) ([6]; HCC827, DBG 3 nM, DBG 0 nM 119.45): 66.38 | cyto c (mitosol) protein Ratio ([6]; HCC827, DBG 3 nM): 0.56 | cyto c (mitosol) cyto c/COX4/actin (A) ([6]; HCC827, DBG 6 nM, DBG 0 nM 119.45): 25.00 | cyto c (mitosol) protein Ratio ([6]; HCC827, DBG 6 nM): 0.21 | cyto c (mitosol) cyto c/COX4/actin (A) ([6]; HCC827, DBG 12 nM, DBG 0 nM 119.45): 23.24 | cyto c (mitosol) protein Ratio ([6]; HCC827, DBG 12 nM): 0.19 | cyto c (mitosol) cyto c/COX4/actin (A) ([6]; HCC827GR, DBG 3 nM, DBG 0 nM 168.86): 137.25 | cyto c (mitosol) protein Ratio ([6]; HCC827GR, DBG 3 nM): 0.81 | cyto c (mitosol) cyto c/COX4/actin (A) ([6]; HCC827GR, DBG 6 nM, DBG 0 nM 168.86): 47.89 | cyto c (mitosol) protein Ratio ([6]; HCC827GR, DBG 6 nM): 0.28 | cyto c (mitosol) cyto c/COX4/actin (A) ([6]; HCC827GR, DBG 12 nM, DBG 0 nM 168.86): 7.39 | cyto c (mitosol) protein Ratio ([6]; HCC827GR, DBG 12 nM): 0.0438
